The nature of series [1]: Amount of medicine permeated in virtual skin system. To be noted: 10 mmol/l, 25° C., no voltage. The series is classed as in vitro ADME. The protocol:
(4) Amount of Medicine Permeated in Virtial Skin System
(§1) An aqueous solution containing 10% by mass of a polyvinyl alcohol (NH-20 produced by The Nippon Synthetic Chemical Industry Co., Ltd.) was coated on a filter paper (a chemical analysis filter paper 5C produced by Advantec). The amount of the solution coated was such that the amount of the polyvinyl alcohol after solvent removal was 2 mg/cm^2. Then, the filter paper was allowed to stand at room temperature for 24 hours or more to vaporize the water, whereby was obtained a virtual skin. […] An aqueous solution containing a given concentration of a medicine was filled in a medicine solution chamber 22; and an aqueous solution containing […] by mass of sodium chloride was filled in a virtual skin chamber 23. Then, a permeation test was conducted at 25° C. for a given period of time with the inside of the medicine solution chamber 22 and the inside of the virtual skin chamber 23 being stirred. Right after the completion of the test, the solution inside the virtual skin chamber 23 was withdrawn and used as a sample for measurement. The amount of medicine in the sample was determined using liquid chromatography.

Series [2] in a line: Amount of medicine permeated in living body skin system. The series is classed as in vitro ADME, miniature pig (Yucatane Micropig). As to conditions: 10 mmol/l, miniature pig back skin. The protocol:
as §1
(5) Amount of Medicine Permeated in Living Body Skin System
The amount of the medicine permeated was measured in the same manner as in the virtual skin system, by replacing the virtual skin (a filter paper coated with a polyvinyl alcohol) with a living body skin, i.e. the back skin of miniature pig (Yucatane Micropig, 5 month-old, female).

[3] abbreviates: magnesium salt of ascorbic acid-phosphoric acid ester, duration of permeation 1 hr.
Where [4] appears, read: magnesium salt of ascorbic acid-phosphoric acid ester, duration of permeation 2 hr.
Setting [5] is: magnesium salt of ascorbic acid-phosphoric acid ester, duration of permeation 3 hr.
Where [6] appears, read: sodium ascorbate, duration of permeation 3 hr.

With `O=C1O[C@H]([C@@H](O)CO)C([O-])=C1OP(=O)([O-])[O-].O=C1O[C@H]([C@@H](O)CO)C([O-])=C1OP(=O)([O-])[O-].[Mg+2].[Mg+2].[Mg+2]` [Comparative Example 2, magnesium salt of ascorbic acid-phosphoric acid ester], the results for the Amount of permeation in series [1] (setting [3]), in series [1] (setting [4]) and in series [1] (setting [5]) were 0.6 μmol/cm^2, 1.3 μmol/cm^2 and 2.0 μmol/cm^2, respectively.

As for `O=C1O[C@H]([C@@H](O)CO)C([O-])=C1O.[Na+]` [Comparative Example 4, sodium ascorbate], the Amount of permeation in series [1] (setting [6]) is on record as 5.2 μmol/cm^2.

For `O=C1O[C@H]([C@@H](O)CO)C([O-])=C1OP(=O)([O-])[O-].O=C1O[C@H]([C@@H](O)CO)C([O-])=C1OP(=O)([O-])[O-].[Mg+2].[Mg+2].[Mg+2]` [Comparative Example 9, magnesium salt of ascorbic acid-phosphoric acid ester], the values for the Amount of permeation in series [2] (setting [3]), in series [2] (setting [4]) and in series [2] (setting [5]) were 0.010 μmol/cm^2, 0.013 μmol/cm^2 and 0.015 μmol/cm^2, respectively.

For `Cl.Cl.NCCc1c[nH]cn1` [compound 6, histamine dihydrochloride], the Amount of permeation in series [1] (histamine dihydrochloride, duration of permeation 3 hr) was 2.5 μmol/cm^2.

With `O=C1O[C@H]([C@@H](O)CO)C([O-])=C1O.[Na+]` [compound 8, sodium ascorbate], the Amount of permeation in series [2] (sodium ascorbate, duration of permeation 1 hr) was found to be 0.003 μmol/cm^2; in series [2] (sodium ascorbate, duration of permeation 2 hr) it was 0.005 μmol/cm^2; in series [2] (setting [6]), 0.007 μmol/cm^2.

(Values after patent US20060198879A1, “Patch material for ionic medicine administration” (Tokuyama Corporation, priority 2003, published 2006).)
